From patent publication EP3967319A1, “COMPOSITION FOR SKIN PROTECTION COMPRISING KAEMPFEROL SACCHARIDES COMPOUNDS” (Amorepacific Corporation, priority 2020, dated 2022)

Assays:
[1] = tested on: senescence marker SA-beta-Gal; experiment: Expression of senescence marker SA-beta gal in senescent skin cells (cellular senescence assay kit); assay type: cell-based, human; conditions: senescent NHDF (passage 37), 3 µM for 7 days; control 78± 5.2
Method: Normal human dermal fibroblasts (NHDF; Lonza, Switzerland) were cultured in Dulbecco's modified Eagle's medium (DMEM, GIBCO 1210-0038) containing 10% fetal bovine serum, in a 5% CO2 incubator at 37 °C. Cells at passages 6-9 were denoted as young cells, and they were subcultured by 1:5 subculturing until passage 37 to obtain senescent dermal fibroblasts. The senescent skin cells of (1) were treated with DMSO, the compounds repressed by Chemical Formula 1, 2, 3, 4, 5, 6, 7 and 8, kaempferol 3-O-β-rutinoside (Chemical Formula 9) or kaempferol 7-O-β-D-glucopyranoside (Chemical Formula 10) at 3 µM for 7 days. [drawing 30] [drawing 31] On day 8, the cells were washed with PBS and stained with a fixative and a stain provided together with a cellular senescence assay kit (Cell Biolabs, Inc., San Diego, CA, USA) at 37 °C for 16 hours. On the next day, after washing with PBS and applying a 20% glycerol solution, the number of cells stained green was counted and the degree of expression of the senescence marker SA-beta-Gal was evaluated.

MMP-1 = MMP-1 ELISA assay in UVB-irradiated HDF cells; assay type: cell-based, human; conditions: UVB 15 mJ/cm^2, 2 µM or 3 µM, 48 hours, compared to Chemical Formulas 5 and 7 or retinoic acid (RA), FIG. 3
Method: HDF cells were seeded onto a 24-well plate at a concentration of 2.5x10^4 cells/well and were culture for 24 hours under a cell culturing condition. Then, the cells were cultured for 48 hours after treating with a test substance diluted in FBS-free DMEM. After washing with Dulbecco's phosphate-buffered saline (DPBS) and irradiating UVB (15 mJ/cm^2), the medium was replaced with the test substance (2 µM or 3 µM) diluted in DMEM and the cells were cultured for 48 hours. Then, the supernatant was recovered and the amount of MMP-1 was measured using a human total MMP-1 ELISA kit (R&D Systems).

[2] = tested on: Human epidermis models (EpiDerm™ EPI-201); experiment: Improvement of skin barrier in 3D organotypic skin epidermis (immunostaining of barrier markers); assay type: cell-based; conditions: old donor epidermis model, 3 µM for 4 days
Method: Human epidermis models (EpiDerm™ EPI-201; […] The human epidermis model derived from the old donor was treated with the kaempferol tetrasaccharide represented by Chemical Formula 1 at 3 µM for 4 days. Paraffin blocks were prepared after fixing with 10% neutral buffered formalin.
After reacting with anti-KRT 10 (Biolegend, San Diego, CA), anti-FLG (Novus Biologicals, Centennial CO, USA), anti-Involucrin and anti-Ki67 (Abcam) antibodies, the expression of the antibodies was analyzed using a microscope. Specifically, the epidermal tissue derived from the young donor (Young) and the epidermal tissue derived from the old donor (Old) were treated with the test substance and then stained with the antibodies described above. The result is shown in FIG. 4, FIGS. 5A-5B and FIGS. 6A-6C. FIGS. 5A-5B and FIGS. 6A-6C show the result of quantifying the result of FIG. 4.

[3] = tested on: GRO, GROα, IL-6, IL-8, MCP-1 to 3 and RANTES; experiment: Cytokine antibody array of conditioned media of skin equivalents (SASP); assay type: cell-based, human; conditions: skin equivalents from either type of senescent NHDFs, BX-795 100 nM, versus vehicle-treated; FIGS. 11A-11B
Method: (§1) PDK1 inhibition inhibits SASP in skin equivalents. 3D skin models (skin equivalents) were prepared from young NHDFs (PDL 12) or senescent NHDFs induced into senescence by doxorubicin and IGF-1 or repeated plating (replicative senescence, PDL 57), and were exposed to DMSO or BX795. The treatment concentrations are as follows: doxorubicin ([…]), IGF-1 (100 ng/mL), BX-795 (100 nM).
Mean ± SD (n = 3), ***P < 0.001 compared to DMSO control senescent cells by one-way analysis of variance.

[4] = tested on: 3D skin models (skin equivalents); experiment: 3D skin models (skin equivalents) from senescent NHDFs, histology and immunohistochemistry; assay type: cell-based, human; conditions: BX-795 100 nM, FIGS. 10A-10B
Method: as §1, with “3D” for “PDK1 inhibition inhibits SASP in skin equivalents. 3D”, “57)” for “57),”
The indicated proteins were detected by immunohistochemistry. The results are from three representative experiments. Scale bar = 50 µm.
Paraffin samples were dewaxed in xylene and rehydrated through a descending ethanol to water series (3 minutes per solution). […] The sections were then incubated with water/1% H2O2 for 30 minutes to block endogenous peroxidase, rinsed with water and PBS/0.05% Tween 20 for 5 minutes, and incubated with PBS/10% goat serum (Dako, Glostrup, Denmark) for 20 minutes before exposure to the following antibodies overnight at 4 °C; Primary antibodies are: anti-KRT 10 (Biolegend, San Diego, CA), anti-FLG (Abcam), anti-MMP-1(Abcam) and anti-Ki67 (Abcam). […]
Finally, the sections were dehydrated in graded ethanol, cleared in xylene and mounted in Cytoseal 60 (Thermo Scientific, Waltham, MA). […] Tissue sections were incubated with COL17A1 (Abcam) and laminin-5 (Santa Cruz Biotechnology) in Dako fluorescence mounting medium (Dako) at 4 °C overnight. […]

Row | Compound | degree of expression of the senescence marker SA-beta-Gal (number of cells stained green) [1] | effect of inhibiting MMP-1 expression (MMP-1) | other results
1 | C[C@@H]1O[C@@H](OC[C@H]2O[C@@H](Oc3c(-c4ccc(O)cc4)oc4cc(O)cc(O)c4c3=O)[C@H](O[C@@H]3O[C@H](CO)[C@@H](O)[C@H](O)[C@H]3O)[C@@H](O)[C@H]2O)[C@H](O)[C@H](O[C@@H]2OC[C@@H](O)[C@H](O)[C@H]2O)[C@H]1O [Chemical Formula 3, kaempferol-3-O-β-D-xylopyranosyl-(1→3)-O-α-L-rhamnopyranosyl-(1→6)-O-β-D-glucopyranosyl-(1→2)-O-β-D-galactopyranoside] | 42 ± 9.7 | superior effect of inhibiting MMP-1 expression | –
2 | kaempferol-3-O-β-D-xylopyranosyl-(1→3)-O-α-L-rhamnopyranosyl-(1→6)-O-β-D-glucopyranosyl-(1→2)-O-β-D-glucopyranoside [Chemical Formula 4] | 37 ± 9.1 | superior effect of inhibiting MMP-1 expression | –
3 | C[C@@H]1O[C@@H](OC[C@H]2O[C@@H](Oc3c(-c4ccc(O)cc4)oc4cc(O)cc(O)c4c3=O)[C@H](O[C@@H]3OC[C@@H](O)[C@H](O)[C@H]3O)[C@@H](O)[C@@H]2O)[C@H](O)[C@H](O[C@@H]2OC[C@@H](O)[C@H](O)[C@H]2O)[C@H]1O [Chemical Formula 2, kaempferol-3-O-β-D-xylopyranosyl-(1→3)-O-α-L-rhamnopyranosyl-(1→6)-O-β-D-xylopyranosyl-(1→2)-O-β-D-glucopyranoside] | 40 ± 10.4 | – | –
4 | C[C@@H]1O[C@@H](OC[C@H]2O[C@@H](Oc3c(-c4ccc(O)cc4)oc4cc(O)cc(O)c4c3=O)[C@H](O)[C@@H](O)[C@@H]2O)[C@H](O)[C@H](O)[C@H]1O [Kaempferol 3-O-β-rutinoside, kaempferol 3-O-β-rutinoside, reference compound] | 81 ± 11.3 | – | –
5 | O=c1c(O)c(-c2ccc(O)cc2)oc2cc(O)cc(O)c12 [Kaempferol] | 80 ± 12.1 | – | –
6 | O=c1c(O)c(-c2ccc(O)cc2)oc2cc(O[C@@H]3O[C@H](CO)[C@@H](O)[C@H](O)[C@H]3O)cc(O)c12 [Kaempferol 7-0-β-D-glucopyranoside, kaempferol 7-O-β-D-glucopyranoside, reference compound] | 79± 9.9 | – | –
7 | C[C@@H]1O[C@@H](OC[C@H]2O[C@@H](Oc3c(-c4ccc(O)cc4)oc4cc(O)cc(O)c4c3=O)[C@H](O[C@@H]3OC[C@@H](O)[C@H](O)[C@H]3O)[C@@H](O)[C@H]2O)[C@H](O)[C@H](O[C@@H]2OC[C@@H](O)[C@H](O)[C@H]2O)[C@H]1O [Chemical Formula 1, kaempferol-3-O-β-D-xylopyranosyl-(1→3)-O-α-L-rhamnopyranosyl-(1→6)-O-β-D-xylopyranosyl-(1→2)-O-β-D-galactopyranoside] | 38 ± 10.4 | superior effect of inhibiting MMP-1 expression | epidermal thickness ([2]; FIG. 5A): recovered to levels comparable to those of the young epidermal tissue; expression of the regeneration marker (KI67) ([2]; FIG. 5B): recovered to levels comparable to those of the young epidermal tissue; barrier function (KRT10, FLG, INV) ([2]; FIGS. 6A-6C): recovered to levels comparable to those of the young epidermal tissue
8 | O=C(NCCCNc1nc(Nc2cccc(NC(=O)N3CCCC3)c2)ncc1I)c1cccs1 [BX795] | – | – | GRO, GROα, IL-6, IL-8, MCP-1 to 3 and RANTES in the conditioned medium [3]: less; epidermal thickness in the skin equivalents ([4]; skin equivalents from senescence-induced NHDFs): preserved epidermal thickness; proliferation marker Ki-67 in the epidermis of the skin equivalents ([4]; skin equivalents from senescent NHDFs): markedly increased
